Results from patent US7169966B2, “Salicylic acid-binding protein encoding nucleic acid, SABP2, and methods of use thereof” (Boyce Thompson Institute for Plant Research, Inc., priority 2001, dated 2007).

Key:
SABP2 [1] = target: T1, SABP2 (Nicotiana tabacum, UniProt Q6RYA0); assay: [3H] salicylic acid-binding assay with unlabeled competitors, recombinant His6-SABP2 produced in E. coli; set-up: Full-length tobacco SABP2 was PCR amplified; His6 (N); made in house; host or cells: E. coli BL21 (DE3), vector pET28a; species or system tobacco (Nicotiana tabacum); conditions: for Bound [^3H] SA SABP2: 1 mM unlabeled competitor, protein produced in E. coli, no competitor = 140206 dpm; for inhibition of ^3H-SA binding by unlabeled competitor (in words): large molar excess of unlabeled competitor, recombinant His6-tagged protein; for binding to SABP2 (in words): recombinant, purified SABP2
T1 sequence (Q6RYA0 1-260): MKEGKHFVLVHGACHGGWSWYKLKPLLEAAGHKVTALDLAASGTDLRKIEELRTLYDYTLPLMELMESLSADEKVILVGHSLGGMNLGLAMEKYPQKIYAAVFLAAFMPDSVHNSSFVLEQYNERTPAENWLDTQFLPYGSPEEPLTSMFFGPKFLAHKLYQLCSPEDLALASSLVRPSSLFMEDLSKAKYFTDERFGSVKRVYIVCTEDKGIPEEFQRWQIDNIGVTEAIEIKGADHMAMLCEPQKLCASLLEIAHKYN
Experimental: (§1) [^3H] Salicylic acid-binding assay: The protein extracts/fractions were mixed with 0.1 μM [^3H]-SA (23.6 Ci/mmol) (custom synthesized by NEN Life Science Products) in Buffer A to bring the total volume of the reaction mixture to 150 μl. The extracts were then incubated on ice for 60 minutes. Spin columns were prepared by packing Sephadex G-25 fine (Pharmacia) equilibrated with Buffer A into 1 ml disposable syringe barrels. The G-25 was packed to 1 ml and equilibrated by centrifuging at 1000 g for 4 minutes in a H-1000B rotor (Sorvall) at 4° C. The entire binding mixture was loaded onto the column and centrifuged under similar conditions. Bound [^3H]-SA which is present in the flow through, was mixed with 4 ml scintillation cocktail (Ecolite, ICN) and measured in a liquid scintillation counter. Appropriate controls were also assayed.
Expression of Recombinant SABP2 in E. coli. Full-length tobacco SABP2 was PCR amplified to introduce BamH1 enzyme sites at both ends using the primers F2 ([…]) (SEQ ID NO:51) and F3 ([…]) (SEQ ID NO:52). The amplified product was cloned into the BamH1 site of pET28a (Novagen) and sequenced. Recombinant SABP2 (rSABP2) was synthesized as a soluble protein in E. coli strain BL21 (DE3) and affinity purified by Ni-NTA agarose chromatography (Novagen) as described by the manufacturer. rSABP2 was further purified on a Mono Q column as described earlier.
(§2) To rigorously establish that the 28 KDa protein from plant extract was SABP2, the cloned cDNA was expressed in E. coli as His6-tagged fusion protein and the recombinant protein was purified on a Ni column and tested for SA-binding activity (Table IV).

PR genes = conditions: for induction of PR genes or enhanced disease resistance; cited from earlier work
AtSB2L1 = target: T2, AtSB2L1 (Arabidopsis thaliana, UniProt Q8S8S9); assay: [3H] salicylic acid-binding assay with unlabeled competitors, Arabidopsis homolog produced in E. coli; conditions: 1 mM unlabeled competitor; protein produced in E. coli; no competitor = 70 dpm
T2 construct: made in house
T2 sequence (Q8S8S9 1-263): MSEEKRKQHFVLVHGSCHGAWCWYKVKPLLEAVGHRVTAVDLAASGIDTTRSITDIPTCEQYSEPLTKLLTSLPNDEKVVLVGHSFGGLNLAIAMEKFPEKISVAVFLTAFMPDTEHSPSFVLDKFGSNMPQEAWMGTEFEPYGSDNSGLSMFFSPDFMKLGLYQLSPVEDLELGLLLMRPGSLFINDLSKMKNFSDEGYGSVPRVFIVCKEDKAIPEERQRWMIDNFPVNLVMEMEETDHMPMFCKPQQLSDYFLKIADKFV
Experimental: as §1, §2

AtSB2L5 = target: T3, AtSB2L5 (Arabidopsis thaliana, UniProt Q9LFT6); assay: as above; conditions: 1 mM unlabeled competitor; protein produced in E. coli; no competitor = 12927 dpm
T3 construct: made in house; host or cells: E. coli
T3 sequence (Q9LFT6 1-258): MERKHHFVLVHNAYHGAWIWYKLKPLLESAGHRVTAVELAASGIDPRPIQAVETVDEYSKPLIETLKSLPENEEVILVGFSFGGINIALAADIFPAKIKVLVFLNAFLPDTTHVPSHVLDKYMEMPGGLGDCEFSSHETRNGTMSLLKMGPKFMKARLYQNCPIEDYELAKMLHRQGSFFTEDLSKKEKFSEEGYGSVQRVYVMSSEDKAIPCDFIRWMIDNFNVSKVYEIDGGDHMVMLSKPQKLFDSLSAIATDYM
Experimental: as §1, §2

AtSB2L9 = target: T4, AtSB2L9 (Arabidopsis thaliana, UniProt O23171); assay: as above; conditions: 1 mM unlabeled competitor; protein produced in E. coli; no competitor = 16486 dpm
T4 construct: made in house; host or cells: E. coli
T4 sequence (O23171 1-256): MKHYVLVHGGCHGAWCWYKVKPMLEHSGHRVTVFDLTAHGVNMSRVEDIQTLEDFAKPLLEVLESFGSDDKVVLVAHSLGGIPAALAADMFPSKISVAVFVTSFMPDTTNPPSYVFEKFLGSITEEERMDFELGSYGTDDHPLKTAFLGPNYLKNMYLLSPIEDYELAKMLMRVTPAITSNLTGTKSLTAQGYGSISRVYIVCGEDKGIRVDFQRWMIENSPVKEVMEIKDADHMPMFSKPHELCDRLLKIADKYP
Experimental: as §1, §2

SABP2 [2] = target: T1, SABP2; assay: SA / analog binding to SABP2 isolated from tobacco plant extracts; set-up: from tissue; host or cells: tobacco leaves, partially purified extract
Source text: (§3) SA is a key component in the signal transduction pathway(s) leading to activation of certain defense responses in plants after pathogen attack. Previous studies have identified several proteins, including catalase and ascorbate peroxidase, through which the SA signal might act. A novel nucleic acid molecule encoding the SA-binding protein 2, SABP2, is described herein. SABP2 was identified through the use of a high specific activity ligand, [^3H]-SA (15–30 Ci/mmole). […] For example, SABP2 is much less abundant in leaf tissue than the catalase, and has an apparent native mass (Mr) of between about 20 and 40 kDa, as compared with the native molecular mass of catalase, which is approximately 240 kDa.
(§4) As one example, assays for SA analogues may be based on the ability of analogues to bind SABP2 or to compete with SA for binding to SABP2. […] Since SABP2 is part of the signal transduction pathway leading to disease resistance, it may be possible to enhance induction of disease resistance using analogues of SA which are not readily metabolized by the plants. […] This glucoside is not active for induction of disease resistance.
(§5) [^3H] […] Bound [^3H]-SA which is present in the flow through, was mixed with 4 ml scintillation cocktail (Ecolite, ICN) and measured in a liquid scintillation counter. […]

SABP2 expression = assay: Induction of SABP2 expression in plants by chemical treatment; type: in vivo, tobacco; conditions: without TMV infection
Source text: Expression studies have been initiated and already indicate that the tobacco SABP2 and one of its putative Arabidopsis ortholog, AtSB2L9, are induced in plants resisting infection by viral [tobacco mosaic virus(TMV) or turnip crinkle virus (TCV)] or bacterial (P. s.) pathogens. These studies can be extended to other plant-pathogen interactions, e.g. P. s. pv tabaci, and P.s. pv tomato with or without AvrPto in tomato or Pto-transformed Nicotiana benthamiana, for SABP2 and P. s. and Peronospora parasitica for AtSB2L5, AtSB2L9, and other putative orthologs in Arabidopsis. […] Therefore, induction of SABP2 and its Arabidopsis ortholog(s) by ethylene can be tested in a similar fashion.

SABP2 [3] = target: T1, SABP2; set-up: from tissue; host or cells: tobacco leaves, partially purified extract; conditions: partially purified plant extracts; more avidly than SA (Du and Klessig, 1997); cited from earlier work
SABP2 [4] = assay: SA / analog binding to SABP2 isolated from tobacco plant extracts; conditions: fold higher
Source text: as §3, §4, §5

SABP2 [5] = target: T1, SABP2; assay: Lipase activity assay of purified recombinant SABP2 (pNP palmitate / pNP myristate) with or without SA; type: biochemical, tobacco; set-up: Full-length tobacco SABP2 was PCR amplified; His6 (N); made in house; host or cells: E. coli BL21 (DE3), vector pET28a
lipase from Mucor meihei = lipase from Mucor meihei (Rhizomucor miehei, UniProt P19515); assay: Lipase activity assay with or without SA, control lipase; type: biochemical; conditions: data not shown
Chain of lipase from Mucor meihei (P19515 95-363): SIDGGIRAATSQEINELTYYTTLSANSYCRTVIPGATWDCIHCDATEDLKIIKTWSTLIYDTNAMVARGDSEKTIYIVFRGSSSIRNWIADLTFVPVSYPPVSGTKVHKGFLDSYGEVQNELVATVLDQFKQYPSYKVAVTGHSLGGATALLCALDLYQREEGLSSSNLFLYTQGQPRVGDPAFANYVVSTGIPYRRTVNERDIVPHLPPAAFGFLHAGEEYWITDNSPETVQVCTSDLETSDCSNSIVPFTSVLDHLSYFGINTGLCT
Experimental: Since SABP2 contains the catalytic triad and the lipase signature sequence, the recombinant protein was tested for lipase activity. […] Addition of SA to the reaction stimulated lipase activity 3–6 fold (FIG. 6B). This stimulation required SA binding to SABP2, since it was abolished in reaction conditions that prevented SA binding. […] The lipase activity assay was performed as described by Yang et al. with modifications to allow SA binding to SABP2. The standard 1 ml assay mixture consisted of 1 mM substrate in 50 mM Bicine pH 8.0, 0.05% Triton-X100. Following a 60 min preincubation on ice in absence or presence of 1 mM SA, the reaction was allowed to proceed at 24° C. for 60 min. A 100 mM stock solution of p-NPM or p-NPP was prepared in acetonitrile. Lipase activity was estimated colorimetrically (Unicom UV1, Spectronic Unicom, UK) by measuring the liberation of para-nitrophenol from p-NPP or p-NPM at 410 nm. Measurements from control reactions without SABP2 were subtracted from each reaction. For non SA-binding conditions, Tris-HCl pH 8.0 (50 mM) was used in placed of Bicine buffer.

O=C(O)c1c(O)cccc1O [2,6-DHBA, 2,6-dihydroxybenzoic acid]
Bound [^3H] SA SABP2 (SABP2 [1]): 924 dpm
Biological Activity of competitor (PR genes): active
Bound [^3H] SA AtSB2L1 (AtSB2L1): 36 dpm
Bound [^3H] SA AtSB2L5 (AtSB2L5): 1742 dpm
Bound [^3H] SA AtSB2L9 (AtSB2L9): 1072 dpm

O=C(O)c1ccc(O)cc1 [4-HBA, 4-hydroxybenzoic acid]
Bound [^3H] SA SABP2 (SABP2 [1]): 95634 dpm
inhibition of ^3H-SA binding by unlabeled competitor (in words) (SABP2 [1]): not
binding to SABP2 (in words) (SABP2 [1]): only minimal binding
Biological Activity of competitor (PR genes): inactive
Bound [^3H] SA AtSB2L1 (AtSB2L1): 65 dpm
Bound [^3H] SA AtSB2L5 (AtSB2L5): 4757 dpm
Bound [^3H] SA AtSB2L9 (AtSB2L9): 3620 dpm

O=C(O)c1cc(Cl)ccc1O [5-CSA, 5-chlorosalicylic acid]
Bound [^3H] SA SABP2 (SABP2 [1]): 260 dpm
Biological Activity of competitor (PR genes): active
Bound [^3H] SA AtSB2L1 (AtSB2L1): 38 dpm
Bound [^3H] SA AtSB2L5 (AtSB2L5): 64 dpm
Bound [^3H] SA AtSB2L9 (AtSB2L9): 42 dpm

c1ccc2snnc2c1 [BTH, benzothiadiazole]
binding to SABP2 (in words) (SABP2 [1]): did not bind
affinity of SABP2 for BTH relative to SA (SABP2 [2]; SABP2 isolated from plant extracts, fold greater): approximately 15 fold
induction of SABP2 expression by treatment alone (SABP2 expression): insufficient
binding of BTH to SABP2 relative to SA (SABP2 [3]): about 15 fold

O=C(O)c1ccccc1O [SA, salicylic acid]
Bound [^3H] SA SABP2 (SABP2 [1]): 160 dpm
SA binding to SABP2 in Tris buffer (in words) (SABP2 [1]; 50 mM bicine replaced with 50 mM Tris-HCl pH 8.0): does not bind
inhibition of ^3H-SA binding by unlabeled competitor (in words) (SABP2 [1]): inhibited effectively
Biological Activity of competitor (PR genes): active
affinity of SABP2 for SA relative to that between SA and tobacco catalase (SABP2 [4]): 100–150 fold
Bound [^3H] SA AtSB2L1 (AtSB2L1): 42 dpm
Bound [^3H] SA AtSB2L5 (AtSB2L5): 121 dpm
Bound [^3H] SA AtSB2L9 (AtSB2L9): 36 dpm
stimulation of SABP2 lipase activity by SA (SABP2 [5]; 1 mM SA, 50 mM Bicine pH 8.0, substrates pNP palmitate, pNP myristate): 3–6 fold
stimulation of SABP2 lipase activity by SA under conditions that prevent SA binding (SABP2 [5]; Tris-HCl pH 8.0 (50 mM) in place of Bicine): abolished
Kd (SABP2 [2]; SABP2 from tobacco, reversible binding, read-out: apparent Kd of SA binding to SABP2): ~90 nM
stimulation of lipase activity by SA (lipase from Mucor meihei): did not exhibit stimulation
induction of SABP2 expression by treatment alone (SABP2 expression): insufficient
